The term EC50 denotes the midpoint of the concentration-response curve. One may read the IC50 as the concentration that inhibits the measured activity by half.

Structures can show the parent of a compound that is named as a salt. Some results are limits rather than exact numbers.

Assay [1] relates to HCV replicon in Huh7 cells. Put plainly: HCV replicon cell-based assay (replicon FRET assay). The arrangement: species or system HCV strain 1B. To be noted: Hepatitis C virus, Huh-7, HCV replicon cell assay; EC50 ranges. The text has this:
An HCV replicon whole cell system was established as described by Lohmann V, Korner F, Koch J, Herian U, Theilmann L, Bartenschlager R., Science 285 (5424):110-3 (1999). This system enabled us to evaluate the effects of our HCV Protease compounds on HCV RNA replication. Briefly, using the HCV strain 1B sequence described in the Lohmann paper (Assession number:AJ238799), an HCV cDNA was generated encoding the 5′ internal ribosome entry site (IRES), the neomycin resistance gene, the EMCV (encephalomyocarditis viurs)-IRES and the HCV nonstructural proteins, NS3-NS5B, and 3′ non-translated region (NTR). In vitro transcripts of the cDNA were transfected into the human hepatoma cell line, Huh7. […] Resulting cell lines were characterized for positive and negative strand RNA production and protein production over time.
Huh7 cells, constitutively expressing the HCV replicon, were grown in Dulbecco's Modified Eagle Media (DMEM) containing 10% Fetal calf serum (FCS) and 1 mg/ml G418 (Gibco-BRL). Cells were seeded the night before (1.5×10^4 cells/well) in 96-well tissue-culture sterile plates. Compound and no compound controls were prepared in DMEM containing 4% FCS, 1:100 Penicillin/Streptomysin, 1:100 L-glutamine and 5% DMSO in the dilution plate (0.5% DMSO final concentration in the assay). Compound/DMSO mixes were added to the cells and incubated for 4 days at 37° C. After 4 days, plates were rinsed thoroughly with Phosphate-Buffered Saline (PBS) (3 times 150 μl). The cells were lysed with 25 μl of a lysis assay reagent containing the FRET peptide (RET S1, as described for the in vitro enzyme assay). The lysis assay reagent was made from 5× cell Luciferase cell culture lysis reagent(Promega #E153A) diluted to 1× with distilled water, NaCl added to 150 mM final, the FRET peptide diluted to 10 μM final from a 2 mM stock in 100% DMSO. The plate was then placed into the Cytofluor 4000 instrument which had been set to 340 nm excitation/490 emission, automatic mode for 21 cycles and the plate read in a kinetic mode. EC50 determinations were carried out as described for the IC50 determinations.
(In general: Replicon systems follow genome replication, usually without infectious particles.)

Assay [2] has as its target T1, HCV NS3/4A protease complex, BMS strain (genotype 1a) (Hepatitis C virus genotype 1a, UniProt P27958, C1454S/C1711G).
T1 construct: recombinant HCV NS3/4A protease complex (amino'acids 1027 to 1711); inferred from the pET21b vector and Ni-NTA purification; made in house; host or cells: Escherichia coli BL21 (DE3), pET21b
Put plainly: Recombinant HCV NS3/4A protease complex FRET peptide assay (BMS strain). Format: biochemical. Particulars: IC50, HCV NS3/4A protease FRET assay in vitro; IC50 ranges. The text has this: The purpose of this in vitro assay was to measure the inhibition of HCV NS3 protease complexes, derived from the BMS, H77C or J4L6S strains, as described below, by compounds of the present invention. This assay provides an indication of how effective compounds of the present invention would be in inhibiting HCV proteolytic activity.
Serum from an HCV-infected patient was obtained from Dr. T. Wright, San Francisco Hospital. An engineered full-length cDNA (compliment deoxyribonucleic acid) template of the HCV genome (BMS strain) was constructed from DNA fragments obtained by reverse transcription-PCR (RT-PCR) of serum RNA (ribonucleic acid) and using primers selected on the basis of homology between other genotype 1a strains. From the determination of the entire genome sequence, a genotype 1a was assigned to the HCV isolate according to the classification of Simmonds et al. (See P Simmonds, K A Rose, S Graham, S W Chan, F McOmish, B C Dow, E A Follett, P L Yap and H Marsden, J. Clin. Microbiol., 31 (6), 1493-1503 (1993)). […] The infectious clones, H77C (1a genotype) and J4L6S (1b genotype) were obtained from R. Purcell (N1H) and the sequences are published in Genbank (AAB67036, see Yanagi, M., Purcell, R. H., Emerson, S. U. and Bukh, J. Proc. Natl. Acad. Sci. U.S.A. 94 (16), 8738-8743 (1997); AF054247, see Yanagi, M., St Claire, M., Shapiro, M., Emerson, S. U., Purcell, R. H. and Bukh, J, Virology 244 (1), 161-172. (1998)).
The BMS, H77C and J4L6S strains were used for production of recombinant NS3/4A protease complexes. DNA encoding the recombinant HCV NS3/4A protease complex (amino'acids 1027 to 1711) for these strains were manipulated as described by P. Gallinari et al. (see Gallinari P, Paolini C, Brennan D, Nardi C, Steinkuhler C, De Francesco R. Biochemistry. 38 (17):5620-32, (1999)). Briefly, a three-lysine solubilizing tail was added at the 3′-end of the NS4A coding region. The cysteine in the P1 position of the NS4A-NS4B cleavage site (amino acid 1711) was changed to a glycine to avoid the proteolytic cleavage of the lysine tag. Furthermore, a cysteine to serine mutation was introduced by PCR at amino acid position 1454 to prevent the autolytic cleavage in the NS3 helicase domain. The variant DNA fragment was cloned in the pET21b bacterial expression vector (Novagen)and the NS3/4A complex was expressed in Escherichia. coli strain BL21 (DE3) (Invitrogen) following the protocol described by P. Gallinari et al. (see Gallinari P, Brennan D, Nardi C, Brunetti M, Tomei L, Steinkuhler C, De Francesco R., J. Virol. 72 (8):6758-69 (1998)) with modifications. Briefly, NS3/4A expression was induced with 0.5 mM Isopropyl β-D-1-thiogalactopyranoside (IPTG) for 22 hr at 20° C. A typical fermentation (10L) yielded approximately 80 g of wet cell paste. The cells were resuspended in lysis buffer (10 mL/g) consisting of 25 mM N-(2-Hydroxyethyl)Piperazine-N′-(2-Ethane Sulfonic acid) (HEPES), pH 7.5, 20% glycerol, 500 mM Sodium Chloride (NaCl), 0.5% Triton-X100, 1 ug/ml lysozyme, 5 mM Magnesium Chloride (MgCl2), 1 ug/ml Dnasel, 5 mM β-Mercaptoethanol (OME), Protease inhibitor-Ethylenediamine Tetraacetic acid (EDTA) free (Roche), homogenized and incubated for 20 mins at 4° C. The homogenate was sonicated and clarified by ultra-centrifugation at 235000 g for 1 hr at 4° C. Imidazole was added to the supernatant to a final concentration of 15 mM and the pH adjusted to 8.0. The crude protein extract was loaded on a Nickel-Nitrilotriacetic acid (Ni-NTA) column pre-equilibrated with buffer B (25 mM HEPES, pH 8.0, 20% glycerol, 500 mM NaCl, 0.5% Triton-X100, 15 mM imidazole, 5 mM βME). The sample was loaded at a flow rate of 1 mL/min. The column was washed with 15 column volumes of buffer C (same as buffer B except with 0.2% Triton-X100). The protein was eluted with 5 column volumes of buffer D (same as buffer C except with 200 mM Imidazole). […]

T1 sequence (P27958 1027-1711 C1454S/C1711G, one chain of several): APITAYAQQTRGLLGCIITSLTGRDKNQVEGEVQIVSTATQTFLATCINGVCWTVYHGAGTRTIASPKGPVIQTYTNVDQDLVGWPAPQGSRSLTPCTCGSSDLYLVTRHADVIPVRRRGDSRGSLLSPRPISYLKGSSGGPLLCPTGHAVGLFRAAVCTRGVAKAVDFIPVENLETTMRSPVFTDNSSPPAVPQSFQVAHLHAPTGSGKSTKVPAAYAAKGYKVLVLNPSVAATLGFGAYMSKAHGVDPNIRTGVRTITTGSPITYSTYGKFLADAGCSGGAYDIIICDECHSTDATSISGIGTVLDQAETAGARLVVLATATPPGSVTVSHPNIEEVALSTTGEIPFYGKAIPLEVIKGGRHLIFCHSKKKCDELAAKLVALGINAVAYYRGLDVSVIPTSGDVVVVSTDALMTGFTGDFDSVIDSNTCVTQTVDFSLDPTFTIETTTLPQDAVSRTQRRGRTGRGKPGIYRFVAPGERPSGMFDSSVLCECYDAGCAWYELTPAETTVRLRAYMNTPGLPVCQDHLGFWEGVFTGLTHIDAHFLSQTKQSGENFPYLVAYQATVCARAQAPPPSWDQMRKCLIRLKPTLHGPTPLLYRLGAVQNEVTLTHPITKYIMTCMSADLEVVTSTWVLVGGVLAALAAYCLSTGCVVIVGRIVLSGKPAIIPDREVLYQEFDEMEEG

For `COc1ccc2c(O[C@@H]3C[C@H]4C(=O)N[C@]5(C(=O)NS(=O)(=O)C6CC6)CC5/C=C\CCCCC[C@H](N)C(=O)N4C3)cc(-c3ccccc3)nc2c1` (stereo partly drawn) [Compound 10, (1S,4R,6S,14S,18R)-7-cis-Cyclopropane-sulfonic acid [14-amino-18-(7-methoxy-2-phenylquinol-in-4-yloxy)-2,15-dioxo-3,16-diazatricyclo[14.3.0.0^4,6]-nonadec-7-ene-4-carbonyl]amide dihydrochloride], the concentration giving a half-maximal response (EC50) in assay [1] is under 50 nM. The half-maximal inhibitory concentration (IC50) in assay [2] is under 50 nM.
Take `COc1ccc2c(O[C@@H]3C[C@H]4C(=O)N[C@]5(C(=O)NS(=O)(=O)C6CC6)C[C@H]5/C=C\CCCCC[C@@H](NC(=O)OC(C)(C)C)C(=O)N4C3)ccnc2c1` [Compound 12]: the EC50 in assay [1] was under 500 nM. The IC50 in assay [2] was under 500 nM.
In assay [1], `COc1ccc2c(O[C@@H]3C[C@H]4C(=O)N[C@]5(C(=O)NS(=O)(=O)C6CC6)C[C@H]5CCCCCC[C@H](NC(=O)OC(C)(C)C)C(=O)N4C3)cc(-c3ccccc3)nc2c1` [Compound 13, (1S,4R,6R,13S,17R)-[4-Cyclopropanesulfonylaminocarbonyl-17-(7-methoxy-2-phenylquinolin-4-yloxy)-2,14-dioxo-3,15-diazatricyclo[13.3.0.0^4,6]-octadec-13-yl]-carbamic acid tert-butyl ester] showed an EC50 of under 50 nM. Also, the 50% inhibitory concentration (IC50) in assay [2] was under 50 nM.
As to `COc1ccc2c(O[C@@H]3C[C@H]4C(=O)N[C@]5(C(=O)NS(=O)(=O)C6CC6)C[C@H]5CCCCCC[C@H](N)C(=O)N4C3)cc(-c3ccccc3)nc2c1` [Compound 14, (1S,4R,6R,13S,17R)-Cyclopropanesulfonic acid [13-amino-17-(7-methoxy-2-phenylquinolin-4-yloxy)-2,14-dioxo-3,15-diazatricyclo[13.3.0.0^4,6]-octadecane-4-carbonyl]amide dihydrochloride], the concentration giving a half-maximal response (EC50) in assay [1] was under 50 nM. In addition, the IC50 in assay [2] is under 50 nM.
`COc1ccc2c(O[C@@H]3C[C@H]4C(=O)N[C@]5(C(=O)NS(=O)(=O)C6CC6)C[C@H]5CCCCCCC[C@H](NC(=O)OC(C)(C)C)C(=O)N4C3)cc(-c3ccccc3)nc2c1` [Compound 15, (1S,4R,6R,14S,18R)-[4-Cyclopropanesulfonylaminocarbonyl-18-(7-methoxy-2-phenylquinolin-4-yloxy)-2,15-dioxo-3,16-diazatricyclo-[14.3.0.0^4,6]nonadec-14-yl]carbamic acid tert-butyl ester] displayed an EC50 in assay [1] of under 50 nM. Further, the IC50 in assay [2] was under 50 nM.
Consider `COc1ccc2c(O[C@@H]3C[C@H]4C(=O)N[C@]5(C(=O)NS(=O)(=O)C6CC6)C[C@H]5CCCCCCC[C@H](N)C(=O)N4C3)cc(-c3ccccc3)nc2c1` [Compound 16, (1S,4R,6R,14S,18R)-Cyclopropanesulfonic acid [14-amino-18-(7-methoxy-2-phenylquinolin-4-yloxy)-2,15-dioxo-3,16-diazatricyclo[14.3.0.0^4,6]-nonadecane-4-carbonyl]amide dihydrochloride], for which the EC50 in assay [1] is under 50 nM. Besides, the IC50 in assay [2] was under 50 nM.
The compound `COc1ccc2c(O[C@@H]3C[C@H]4C(=O)N[C@]5(C(=O)NS(=O)(=O)C6CCC6)C[C@H]5/C=C\CCCC[C@H](NC(=O)OC(C)(C)C)C(=O)N4C3)cc(-c3ccccc3)nc2c1` [Compound 17, (1S,4R,6S,13S,17R)-7-cis-[4-Cyclobutanesulfonylaminocarbonyl-17-(7-methoxy-2-phenylquinolin-4-yloxy)-2,14-dioxo-3,15-diazatricyclo[13.3.0.0^4,6]octadec-7-en-13-yl]carbamic acid tert-butyl ester] displayed an EC50 in assay [1] of under 500 nM. Besides, the IC50 in assay [2] was under 50 nM.
With `COc1ccc2c(O[C@@H]3C[C@H]4C(=O)N[C@]5(C(=O)NS(=O)(=O)C6CCC6)CC5CCCCCC[C@H](NC(=O)OC(C)(C)C)C(=O)N4C3)cc(-c3ccccc3)nc2c1` (stereo partly drawn) [Compound 18, (1S,4R,6R,13S,17R)-[4-Cyclobutanesulfonylaminocarbonyl-17-(7-methoxy-2-phenylquinolin-4-yloxy)-2,14-dioxo-3,15-diazatricyclo[13.3.0.0^4,6]octa-dec-13-yl]carbamic acid tert-butyl ester], the EC50 in assay [1] is under 50 nM. Moreover, in assay [2], the IC50 was under 50 nM.
In the case of `COc1ccc2c(O[C@@H]3C[C@H]4C(=O)N[C@]5(C(=O)NS(=O)(=O)C6CCC6)CC5CCCCCCC[C@H](NC(=O)OC(C)(C)C)C(=O)N4C3)cc(-c3ccccc3)nc2c1` (stereo partly drawn) [Compound 19, (1S,4R,6R,14S,18R)-[4-Cyclobutanesulfonylaminocarbonyl-18-(7-methoxy-2-phenylquinolin-4-yloxy)-2,15-dioxo-3,16-diazatricyclo-[14.3.0.0^4,6]nona-dec-14-yl]carbamic acid tert-butyl ester], in assay [1], the EC50 is under 50 nM. Further, in assay [2], the IC50 was under 50 nM.
Compound `COc1ccc2c(O[C@@H]3C[C@H]4C(=O)N[C@]5(C(=O)NS(=O)(=O)C6CC6)CC5/C=C\CCCCC[C@H](NC(=O)NC(C)(C)C)C(=O)N4C3)cc(-c3ccccc3)nc2c1` (stereo partly drawn) [Compound 20, (1S,4R,6S,14S,18R)-7-cis-Cyclopropanesulfonic acid [14-(3-tert-butylureido)-18-(7-methoxy-2-phenyl-quinolin-4-yloxy)-2,15-dioxo-3,16-diazatricyclo[14.3.0.0^4,6]nona-dec-7-ene-4-carbonyl]amide] returned an EC50 in assay [1] of under 50 nM. For the same compound, the half-maximal inhibitory concentration (IC50) in assay [2] was under 50 nM.
